The record followed here is PubChem BioAssay (NCI).

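Cells were grown in 96-well plates and exposed to each compound for 48 hours at five concentrations; endpoints were interpolated linearly between bracketing concentrations, or set to the highest concentration if not reached. Abbreviation: GI50, concentration required for 50% inhibition of growth. Definition used: TGI = concentration required for complete inhibition of growth.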 Some results are limits rather than exact numbers.

Test systems include SNB-19 CNS; HS 578T breast; SK-MEL-2 melanoma; SF-295 CNS; NCI-H460 lung; HT29 colon; LOX IMVI melanoma; SK-MEL-5 melanoma; HCT-15 colon; HL-60(TB) leukemia.
Test in all cases: NCI tumour cell line growth inhibition, 48 h

As to `CN(c1ccc(NC(=O)Nc2ccc(OC(F)(F)F)cc2)cc1)c1ccnc(Nc2cccc(S(N)(=O)=O)c2)n1`, the GI50 with SNB-19 CNS was 5.49 µM; in the assay with HS 578T breast, 4.14 µM; in the assay on SK-MEL-2 melanoma, 4.57 µM; with SF-295 CNS, 0.861 µM; with NCI-H460 lung, 0.428 µM; in the assay on HT29 colon, 1.35 µM. Moreover, the GI50 in the assay on LOX IMVI melanoma was 0.725 µM; in the assay with SK-MEL-5 melanoma, 3.96 µM; in the assay with HCT-15 colon, 5.34 µM; in the assay with HL-60(TB) leukemia, 2.7 µM. In addition, the TGI with SNB-19 CNS stood at 14.3 µM; in the assay with HS 578T breast, 17 µM; in the assay on SK-MEL-2 melanoma, 9.7 µM; in the assay with SF-295 CNS it was 6.48 µM; with NCI-H460 lung, 4.51 µM; in the assay with HT29 colon, 5.95 µM. Moreover, the TGI in the assay on LOX IMVI melanoma amounted to 3.97 µM; in the assay on SK-MEL-5 melanoma, 7.56 µM; in the assay with HCT-15 colon, 15.3 µM; in the assay with HL-60(TB) leukemia, 6.36 µM.

In the case of `C=C(C)C(=O)OC1CC2=CC(CC3(C)OC3C3OC(=O)C(=C)C13)OC2=O` (configuration not stated), the TGI in the assay on SNB-19 CNS was determined as 33.9 µM; in the assay on HS 578T breast, 44.3 µM; in the assay on SK-MEL-2 melanoma, 26.4 µM; with SF-295 CNS, 32.7 µM; in the assay on NCI-H460 lung, 35.1 µM; in the assay on HT29 colon, 17.3 µM. In addition, the TGI was determined as 8.99 µM with LOX IMVI melanoma, 31 µM with SK-MEL-5 melanoma and 20.2 µM in the assay on HCT-15 colon. Besides, the GI50 in the assay on HL-60(TB) leukemia is 0.749 µM.

As for `Cn1c(=O)c(Oc2ccc(F)cc2F)cc2cnc(NC(CO)CO)nc21`, the GI50 in the assay on SNB-19 CNS, with HS 578T breast, with SK-MEL-2 melanoma, in the assay with SF-295 CNS, in the assay on NCI-H460 lung and in the assay with HT29 colon was greater than 25 µM in each case. The GI50 in the assay with LOX IMVI melanoma, in the assay on SK-MEL-5 melanoma, in the assay on HCT-15 colon and in the assay on HL-60(TB) leukemia was greater than 25 µM throughout. For the same compound, the TGI in the assay with SNB-19 CNS, in the assay with HS 578T breast, in the assay with SK-MEL-2 melanoma, in the assay on SF-295 CNS, in the assay on NCI-H460 lung and in the assay on HT29 colon was greater than 25 µM throughout. In addition, the TGI with LOX IMVI melanoma, with SK-MEL-5 melanoma, in the assay with HCT-15 colon and in the assay with HL-60(TB) leukemia was greater than 25 µM each time.

For `O=C1C=C[C@@]23C[C@@H](Nc4c(O)c5c6c(c42)=NCCC=6C=N5)SC3=C1`, the TGI was determined as 30.6 µM with SNB-19 CNS; 19.8 µM in the assay on HS 578T breast; 4.03 µM with SK-MEL-2 melanoma; 19.3 µM in the assay on SF-295 CNS; 19.8 µM in the assay on NCI-H460 lung; 7.39 µM in the assay on HT29 colon. For the same compound, the TGI in the assay with LOX IMVI melanoma is 3.78 µM; in the assay on SK-MEL-5 melanoma, 3.38 µM; in the assay on HCT-15 colon, 7.94 µM; in the assay with HL-60(TB) leukemia, 5.61 µM. For the same compound, the GI50 in the assay with HS 578T breast is 3.75 µM; with SK-MEL-2 melanoma, 1.94 µM; with SF-295 CNS it was 6.68 µM; in the assay on NCI-H460 lung, 7.2 µM; with LOX IMVI melanoma, 1.82 µM; in the assay on SK-MEL-5 melanoma it was 1.93 µM. The GI50 in the assay with HCT-15 colon was 2.85 µM.

For `C/C([O-])=C1\Cc2ccccc2C1=O.C/C([O-])=C1\Cc2ccccc2C1=O.CC[O-].CC[O-].[Ti+4]`, the GI50 in the assay on SNB-19 CNS is 17.4 µM; in the assay on HS 578T breast, 11.7 µM; with SK-MEL-2 melanoma, 13.5 µM; in the assay on SF-295 CNS, 14.5 µM; with NCI-H460 lung, 10.3 µM; in the assay with HT29 colon it was 31.9 µM. Besides, the GI50 with LOX IMVI melanoma was 13 µM; in the assay on SK-MEL-5 melanoma, 19.3 µM; in the assay on HCT-15 colon it was 11.8 µM; with HL-60(TB) leukemia it was 13.1 µM. The TGI in the assay on SNB-19 CNS was 38.5 µM; in the assay with HS 578T breast, 47.2 µM; in the assay with SK-MEL-2 melanoma, 33.6 µM; in the assay with SF-295 CNS, 32 µM; with NCI-H460 lung it was 44.7 µM; in the assay on HT29 colon it was greater than 100 µM. The TGI was 32 µM in the assay with LOX IMVI melanoma, greater than 57.8 µM with SK-MEL-5 melanoma, 79.4 µM with HCT-15 colon and 50.8 µM in the assay with HL-60(TB) leukemia.

In the case of `Nc1ncnc2c1ncn2CC(O)C(=O)O` (configuration not stated), the TGI in the assay with SNB-19 CNS, with HS 578T breast, in the assay with SK-MEL-2 melanoma, in the assay with SF-295 CNS, in the assay on NCI-H460 lung and in the assay on HT29 colon was greater than 100 µM throughout. In addition, the TGI in the assay on LOX IMVI melanoma, with SK-MEL-5 melanoma, in the assay with HCT-15 colon and in the assay on HL-60(TB) leukemia was greater than 100 µM throughout.

As to `CCc1cccc2c3c(sc12)C(c1ccc(Cl)cc1)C(C#N)=C(N)O3` (configuration not stated), the GI50 is 0.499 µM in the assay on SNB-19 CNS; 0.363 µM in the assay on HS 578T breast; 1.25 µM with SK-MEL-2 melanoma; 0.306 µM with SF-295 CNS; 0.414 µM in the assay with NCI-H460 lung; 0.457 µM with HT29 colon. The GI50 in the assay on LOX IMVI melanoma was 0.545 µM; with SK-MEL-5 melanoma it was 0.898 µM; in the assay on HCT-15 colon, 0.418 µM; in the assay with HL-60(TB) leukemia it was 0.355 µM. For the same compound, the TGI was 12.1 µM in the assay with SNB-19 CNS; 2.6 µM in the assay with HS 578T breast; 19.2 µM with SK-MEL-2 melanoma; 1.17 µM with SF-295 CNS; 3.01 µM with NCI-H460 lung; 3.61 µM in the assay with HT29 colon. In addition, the TGI in the assay on LOX IMVI melanoma amounted to 4.22 µM; in the assay with SK-MEL-5 melanoma it was 12 µM; in the assay on HCT-15 colon, 9.59 µM; in the assay on HL-60(TB) leukemia, 9.48 µM.
